Patent US20230257396A1, “MACROCYCLES AND THEIR USE” (BLOSSOMHILL THERAPEUTICS, INC., priority 2020, published 2023)

Key:
Assay in all cases: KINOMEscan kinase binding assay (Eurofins/DiscoveRx), % Ctrl
Conditions in all cases: 1 μM
kinases [1] = biological target: T1, kinases (Homo sapiens, UniProt P00533, L858R/T790M)
T1 construct: purchased Eurofins/DiscoveRx; host or cells: E. coli BL21-derived host (T7 phage display) for most kinases; HEK-293 for the rest
In short: (§1)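 Read-out is qPCR of kinase eluted from ligand-coated streptavidin beads after 1 h room-temperature competition with test compound. Values are % Ctrl at the tested concentration, lower meaning tighter binding.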

kinases [2] = biological target: T2, kinases (Homo sapiens, UniProt P07949, M918T)
T2 construct: purchased Eurofins/DiscoveRx; host or cells: E. coli BL21-derived host (T7 phage display) for most kinases; HEK-293 for the rest
T2 sequence (P07949 29-1114 M918T): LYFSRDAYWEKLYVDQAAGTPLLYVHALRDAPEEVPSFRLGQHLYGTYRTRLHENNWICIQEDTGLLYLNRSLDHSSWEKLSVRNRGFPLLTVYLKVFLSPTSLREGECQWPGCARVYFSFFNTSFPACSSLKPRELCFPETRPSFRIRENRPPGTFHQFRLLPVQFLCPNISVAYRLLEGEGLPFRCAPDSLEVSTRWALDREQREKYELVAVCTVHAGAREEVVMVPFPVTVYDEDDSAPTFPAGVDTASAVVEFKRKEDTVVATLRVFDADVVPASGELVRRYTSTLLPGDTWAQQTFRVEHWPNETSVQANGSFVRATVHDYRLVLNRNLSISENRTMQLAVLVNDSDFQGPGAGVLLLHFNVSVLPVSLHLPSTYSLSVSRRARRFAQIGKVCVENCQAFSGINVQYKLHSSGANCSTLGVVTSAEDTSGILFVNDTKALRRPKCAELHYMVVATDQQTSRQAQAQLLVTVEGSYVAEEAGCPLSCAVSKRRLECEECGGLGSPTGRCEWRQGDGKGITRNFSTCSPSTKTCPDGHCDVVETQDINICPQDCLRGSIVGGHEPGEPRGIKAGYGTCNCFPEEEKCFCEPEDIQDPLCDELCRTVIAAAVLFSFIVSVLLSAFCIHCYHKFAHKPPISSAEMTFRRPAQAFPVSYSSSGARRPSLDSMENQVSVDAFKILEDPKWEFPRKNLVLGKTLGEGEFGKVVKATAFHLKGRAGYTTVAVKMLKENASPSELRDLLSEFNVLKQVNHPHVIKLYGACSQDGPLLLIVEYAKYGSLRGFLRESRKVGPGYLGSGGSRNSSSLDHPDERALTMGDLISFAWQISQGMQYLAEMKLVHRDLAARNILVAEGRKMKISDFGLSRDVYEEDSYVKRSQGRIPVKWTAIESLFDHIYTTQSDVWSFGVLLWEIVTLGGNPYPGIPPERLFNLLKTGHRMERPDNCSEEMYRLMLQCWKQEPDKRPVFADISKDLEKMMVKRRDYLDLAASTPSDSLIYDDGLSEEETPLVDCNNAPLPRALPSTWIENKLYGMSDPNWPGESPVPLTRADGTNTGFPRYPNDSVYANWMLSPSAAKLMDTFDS
In short: as §1

kinases [3] = biological target: T3, kinases (Homo sapiens, UniProt P10721, T670I/V559D)
T3 construct: purchased Eurofins/DiscoveRx; host or cells: E. coli BL21-derived host (T7 phage display) for most kinases; HEK-293 for the rest
T3 sequence (P10721 26-976 V559D/T670I): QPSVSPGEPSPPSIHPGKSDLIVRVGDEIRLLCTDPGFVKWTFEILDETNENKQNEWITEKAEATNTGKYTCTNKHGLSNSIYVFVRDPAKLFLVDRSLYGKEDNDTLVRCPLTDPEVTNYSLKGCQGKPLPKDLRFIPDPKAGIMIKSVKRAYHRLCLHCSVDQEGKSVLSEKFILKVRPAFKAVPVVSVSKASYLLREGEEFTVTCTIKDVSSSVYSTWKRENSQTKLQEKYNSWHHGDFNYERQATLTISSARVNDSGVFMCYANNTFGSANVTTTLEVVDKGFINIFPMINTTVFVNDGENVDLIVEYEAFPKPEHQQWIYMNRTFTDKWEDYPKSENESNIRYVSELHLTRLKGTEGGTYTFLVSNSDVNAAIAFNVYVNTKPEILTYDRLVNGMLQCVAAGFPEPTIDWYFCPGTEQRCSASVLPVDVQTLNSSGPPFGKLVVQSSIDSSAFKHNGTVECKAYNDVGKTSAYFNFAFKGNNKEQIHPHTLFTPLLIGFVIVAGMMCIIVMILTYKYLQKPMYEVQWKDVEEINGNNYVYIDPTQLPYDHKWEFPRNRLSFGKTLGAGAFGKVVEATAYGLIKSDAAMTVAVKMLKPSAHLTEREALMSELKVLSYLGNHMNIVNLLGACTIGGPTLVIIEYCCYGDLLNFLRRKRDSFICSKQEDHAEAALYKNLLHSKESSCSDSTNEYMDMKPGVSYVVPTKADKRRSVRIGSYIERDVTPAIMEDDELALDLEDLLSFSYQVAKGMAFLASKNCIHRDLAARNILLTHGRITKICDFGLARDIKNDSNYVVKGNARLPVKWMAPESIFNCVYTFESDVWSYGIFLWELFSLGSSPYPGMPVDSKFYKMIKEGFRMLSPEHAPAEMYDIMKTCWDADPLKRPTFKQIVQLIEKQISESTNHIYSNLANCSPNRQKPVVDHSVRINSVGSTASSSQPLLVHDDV
In short: as §1

kinases [4] = biological target: T4, kinases (Homo sapiens, UniProt P10721, V559D/V654A)
T4 construct: purchased Eurofins/DiscoveRx; host or cells: E. coli BL21-derived host (T7 phage display) for most kinases; HEK-293 for the rest
T4 sequence (P10721 26-976 V559D/V654A): as the sequence (P10721 26-976 V559D/T670I) above, with V629A, I645T counted along it
In short: as §1

kinases [5] = biological target: T5, kinases (Homo sapiens, UniProt P36888, N841I)
T5 construct: purchased Eurofins/DiscoveRx; host or cells: E. coli BL21-derived host (T7 phage display) for most kinases; HEK-293 for the rest
T5 sequence (P36888 27-993 N841I): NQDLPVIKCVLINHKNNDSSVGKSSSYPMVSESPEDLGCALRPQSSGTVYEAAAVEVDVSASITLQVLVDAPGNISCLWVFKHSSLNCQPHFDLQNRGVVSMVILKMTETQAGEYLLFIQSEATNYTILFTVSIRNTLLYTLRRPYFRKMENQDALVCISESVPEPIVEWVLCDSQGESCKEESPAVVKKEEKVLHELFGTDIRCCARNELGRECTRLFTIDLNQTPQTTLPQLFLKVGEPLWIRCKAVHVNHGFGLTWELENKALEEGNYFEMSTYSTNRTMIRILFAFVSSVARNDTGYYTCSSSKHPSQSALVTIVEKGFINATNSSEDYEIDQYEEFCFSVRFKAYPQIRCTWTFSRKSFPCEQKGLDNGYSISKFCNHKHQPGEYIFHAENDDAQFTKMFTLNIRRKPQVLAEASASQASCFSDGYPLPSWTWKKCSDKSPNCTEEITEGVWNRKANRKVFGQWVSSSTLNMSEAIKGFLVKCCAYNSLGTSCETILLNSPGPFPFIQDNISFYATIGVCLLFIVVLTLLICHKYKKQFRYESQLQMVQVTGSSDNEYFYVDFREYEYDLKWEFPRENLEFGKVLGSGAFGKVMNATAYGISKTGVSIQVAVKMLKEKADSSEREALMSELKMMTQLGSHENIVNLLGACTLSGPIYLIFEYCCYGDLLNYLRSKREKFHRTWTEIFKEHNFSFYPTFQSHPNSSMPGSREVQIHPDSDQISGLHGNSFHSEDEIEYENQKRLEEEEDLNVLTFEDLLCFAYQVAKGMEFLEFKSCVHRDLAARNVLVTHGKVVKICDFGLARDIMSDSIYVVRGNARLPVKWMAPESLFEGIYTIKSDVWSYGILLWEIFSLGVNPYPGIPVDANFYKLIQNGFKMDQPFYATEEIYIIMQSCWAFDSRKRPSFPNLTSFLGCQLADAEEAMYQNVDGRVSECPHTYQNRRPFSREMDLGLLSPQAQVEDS
In short: as §1

Structure (SMILES)	% Ctrl, EGFR(L858R, T790M) (kinases [1]; EGFR(L858R, T790M)) [% Ctrl]	% Ctrl, RET(M918T) (kinases [2]; RET(M918T)) [% Ctrl]	% Ctrl, KIT(V559D, T670I) (kinases [3]; KIT(V559D, T670I)) [% Ctrl]	% Ctrl, KIT(V559D, V654A) (kinases [4]; KIT(V559D, V654A)) [% Ctrl]	% Ctrl, FLT3(N841I) (kinases [5]; FLT3(N841I)) [% Ctrl]	% Ctrl, EGFR(L858R, T790M) (kinases [1]; target EGFR(L858R, T790M)) [% Ctrl]	% Ctrl, RET(M918T) (kinases [2]; target RET(M918T)) [% Ctrl]	% Ctrl, KIT(V559D, T670I) (kinases [3]; target KIT(V559D, T670I)) [% Ctrl]	% Ctrl, KIT(V559D, V654A) (kinases [4]; target KIT(V559D, V654A)) [% Ctrl]	% Ctrl, FLT3(N841I) (kinases [5]; target FLT3(N841I)) [% Ctrl]
Cc1cc2c([nH]1)/C=C1\C(=O)Nc3ccc(nc31)-c1ccccc1OCCCNC2=O [Ex.22, [3a(4)Z]-6-methyl-9,10,11,12-tetrahydro-1,18-(ethanediylidene)dipyrrolo[3,2-g:3′,4′-j][1,5,12]benzoxadiazacyclopentadecine-3,8(2H,5H)-dione]	97	92	100	100	65					
Cc1cc2c([nH]1)/C=C1\C(=O)Nc3cc(Cl)c(cc31)OCCO[C@@H](C(=O)NC1CNC1)CN(C)C2=O [Ex. 133, [7R,16a(17)Z]-N-(azetidin-3-yl)-19-chloro-2,5-dimethyl-4,16-dioxo-4,5,6,7,9,10,15,16-octahydro-1H-12,14-(ethanediylidene)dipyrrolo[3,2-i:3′,4′-l][1,4,7]dioxazacyclopentadecine-7-carboxamide]	95	26	7.4	83	19					
Cc1cc2c([nH]1)/C=C1\C(=O)Nc3cc(Cl)c(cc31)OCCO[C@@H](C(=O)NC1CCNCC1)CN(C)C2=O [Ex. 134, [7R,16a(17)Z]-19-chloro-2,5-dimethyl-4,16-dioxo-N-(piperidin-4-yl)-4,5,6,7,9,10,15,16-octahydro-1H-12,14-(ethaneidylidene)dipyrrolo[3,2-i:3′,4′-l][1,4,7]dioxazacyclopentadecine-7-carboxamide]	92	32	3.9	64	26					
Cc1cc2c([nH]1)/C=C1\C(=O)Nc3cnc(cc31)-c1cnn(C)c1COCCNC2=O [Ex.123, [3a(4)Z]-6,14-dimethyl-10,11,13,14-tetrahydro-2H-17,1-(azenometheno)pyrazolo[4,3-m]dipyrrolo[3,2-f:3′,4′-i][1,4]oxazacyclopentadecine-3,8(5H,9H)-dione]	92	89	97	79	95					
CN1CCSCCOc2cc3c(cc2Cl)NC(=O)/C3=C\c2[nH]ccc2C1=O [Ex. 153]						79	1	0.3	13	0
Cc1cc2c([nH]1)/C=C1\C(=O)Nc3ccc(cc31)-c1cnn(C)c1CN(C)CCN(C)C2=O [Ex. 126, [3a(4)Z]-6,9,12,14-tetramethyl-9,10,11,12,13,14-hexahydro-1,17-(ethanediylidene)pyrazolo[4,3-m]dipyrrolo[3,2-f:3′,4′-i][1,4]diazacyclopentadecine-3,8(2H,5H)-dione]	0.15	0	3.6	0.4	0					
CNC(=O)[C@H]1CN(C)C(=O)c2cc(C)[nH]c2/C=C2\C(=O)Nc3cc(Cl)c(cc32)OCCO1 [Ex. 135, [7R,16a(17)Z]-19-chloro-N,2,5-trimethyl-4,16-dioxo-4,5,6,7,9,10,15,16-octahydro-1H-12,14-(ethanediylidene)dipyrrolo[3,2-i:3′,4′-l][1,4,7]dioxazacyclopentadecine-7-carboxamide]	93	36	6.3	59	41					
Cc1cc2c([nH]1)/C=C1\C(=O)Nc3cc(Cl)c(cc31)OCCO[C@@H](C(=O)N[C@@H]1CCNC1)CN(C)C2=O [Ex. 136, [7R,16a(17)Z]-19-chloro-2,5-dimethyl-4,16-dioxo-N-[(3R)-pyrrolidin-3-yl]-4,5,6,7,9,10,15,16-octahydro-1H-12,14-(ethanediylidene)dipyrrolo[3,2-i:3′,4′-l][1,4,7]dioxazacyclopentadecine-7-carboxamide]	93	25	3.2	54	14					
Cc1nn(C)c2c1-c1ccc3c(c1)/C(=C/c1[nH]ccc1C(=O)N(C)CCCO2)C(=O)N3 [Ex. 150, [3a(4)Z]-9,14,16-trimethyl-10,11,13,14-tetrahydro-2H-1,17-(ethanediylidene)pyrazolo[4,3-m]dipyrrolo[3,2-f:3′,4′-i][1,4]oxazacyclopentadecine-3,8(5H,9H)-dione]						83	90	97	100	19
Cc1cc2c([nH]1)/C=C1\C(=O)Nc3cc(Cl)c(cc31)OCCO[C@@H](C(=O)N1CCN(C)CC1)CN(C)C2=O [Ex. 138, [7R,16a(17)Z]-19-chloro-2,5-dimethyl-7-(4-methylpipearazine-1-carbonyl)-6,7,9,10-tetrahydro-1H-12,14-(ethanediylidene)dipyrrolo[3,2-i:3′,4′-l][1,4,7]dioxazacyclopentadecine-4,16(5H,15H)-dione]						82	72	73	62	68
Cc1cc2c([nH]1)/C=C1\C(=O)Nc3cc(Cl)c(cc31)OCCO[C@@H](C(=O)N(C)C)CN(C)C2=O [Ex. 137, [7R,16a(17)Z]-19-chloro-N,N,2,5-tetramethyl-4,16-dioxo-4,5,6,7,9,10,15,16-octahydro-1H-12,14-(ethanediylidene)dipyrrolo[3,2-i:3′,4′-l][1,4,7]dioxazacyclopentadecine-7-carboxamide]	93	6.4	27	73	49					
Cc1cc2c([nH]1)/C=C1\C(=O)Nc3ccc(cc31)-c1ccnn1CCOCCN(C)C2=O [Ex. 41, [19a(20)Z]-2,5-dimethyl-6,7,9,10-tetrahydro-1H-15,17-(ethanediylidene)pyrazolo[1,5-d]dipyrrolo[3,4-h:2′,3′-k][1,4,14]oxadiazacyclohexadecine-4,19(5H,18H)-dione]	17	45	30	93	0					
Cc1cc2c([nH]1)/C=C1\C(=O)Nc3ccc(cc31)-c1ccnn1CCOCCNC2=O [Ex.39, [19a(20)Z]-2-methyl-6,7,9,10-tetrahydro-1H-15,17-(ethanediylidene)pyrazolo[1,5-d]dipyrrolo[3,4-h:2′,3′-k][1,4,14]oxadiazacyclohexadecine-4,19(5H,18H)-dione]	90	97	85	91	83					
